Data: PubChem BioAssay AID1963840 (Molecular Pharmacology Branch, DTP, NCI, 2024)
pIC50: −log10 of the molar value.

Test system: 695427-040-R-J1-PDC complex spheroid viability
Assay: Anticancer human tumor 695427-040-R-J1-PDC patient-derived colon adenocarcinoma cell line growth inhibition [POLQ]
Conditions: for pIC50: curve of first compound; for viability, T/C: stronger effect = lower value
How it was run: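 Patient-derived tumour cells were co-cultured with HUVEC and mesenchymal stem cells as multicellular spheroids at 37 °C. They were treated with POLQ inhibitors (novobiocin, ART-558, RP6685) alone or combined with other agents. Top concentrations were at or near clinical Cmax (otherwise 10 microM; SN-38 at 1 microM), decreasing in half-log steps.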

[1] = second compound 0.0316 µM, first compound 0.00316 µM
[2] = second compound 0.0316 µM, first compound 0.01 µM
[3] = second compound 0.0316 µM, first compound 0.0316 µM
[4] = second compound 0.0316 µM, first compound 0.1 µM
[5] = second compound 0.1 µM, first compound 0.00316 µM
[6] = second compound 0.1 µM, first compound 0.01 µM
[7] = second compound 0.1 µM, first compound 0.0316 µM
[8] = second compound 0.1 µM, first compound 0.1 µM
[9] = second compound 0.316 µM, first compound 0.00316 µM
[10] = second compound 0.316 µM, first compound 0.01 µM
[11] = second compound 0.316 µM, first compound 0.0316 µM
[12] = second compound 0.316 µM, first compound 0.1 µM
[13] = second compound 1 µM, first compound 0.00316 µM
[14] = second compound 1 µM, first compound 0.01 µM
[15] = second compound 1 µM, first compound 0.0316 µM
[16] = second compound 1 µM, first compound 0.1 µM
[17] = second compound 3.16 µM, first compound 0.00316 µM
[18] = second compound 3.16 µM, first compound 0.01 µM
[19] = second compound 3.16 µM, first compound 0.0316 µM
[20] = second compound 3.16 µM, first compound 0.1 µM
[21] = second compound 10 µM, first compound 0.00316 µM
[22] = second compound 10 µM, first compound 0.01 µM
[23] = second compound 10 µM, first compound 0.0316 µM
[24] = second compound 10 µM, first compound 0.1 µM
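Note: spheroids exposed to compounds for seven days.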
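Throughout, for viability, T/C: 100% = DMSO vehicle control viability.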

Q: How did the pIC50 (second compound 0.0316 µM) turn out when COc1cccc(OCCCN)c1-c1cc(Nc2cnc(C#N)cn2)n[nH]1 + Nc1ccc(C#CCN(C(=O)Cc2ncc(C(F)(F)F)cc2C(F)(F)F)c2ccc(F)cc2)nn1 was run?
A: < 6.00

Q: And the pIC50 (second compound 0.1 µM)?
A: < 6.00

Q: What about the pIC50 (second compound 0.316 µM) of the same compound?
A: < 6.00

Q: What about the pIC50 (second compound 1 µM) of the same compound?
A: < 6.00

Q: What about the pIC50 (second compound 3.16 µM) of the same compound?
A: < 6.00

Q: What about the pIC50 (second compound 10 µM) of the same compound?
A: 6.60

Q: And the viability, T/C [1]?
A: 106%

Q: What about the viability, T/C [2] of the same compound?
A: 99.7%

Q: And the viability, T/C [3]?
A: 94.4%

Q: And the viability, T/C [4]?
A: 82.8%

Q: What about the viability, T/C (second compound 0.0316 µM, first compound 0.316 µM) of the same compound?
A: 68.8%

Q: And the viability, T/C (second compound 0.0316 µM, first compound 1 µM)?
A: 53.5%

Q: What about the viability, T/C [5] of the same compound?
A: 115%

Q: And the viability, T/C [6]?
A: 94.1%

Q: And the viability, T/C [7]?
A: 88.7%

Q: And the viability, T/C [8]?
A: 85.7%

Q: What about the viability, T/C (second compound 0.1 µM, first compound 0.316 µM) of the same compound?
A: 66.3%

Q: What about the viability, T/C (second compound 0.1 µM, first compound 1 µM) of the same compound?
A: 51.9%

Q: And the viability, T/C [9]?
A: 104%

Q: And the viability, T/C [10]?
A: 101%

Q: And the viability, T/C [11]?
A: 80.9%

Q: And the viability, T/C [12]?
A: 82.1%

Q: And the viability, T/C (second compound 0.316 µM, first compound 0.316 µM)?
A: 73.6%

Q: What about the viability, T/C (second compound 0.316 µM, first compound 1 µM) of the same compound?
A: 49.7%

Q: And the viability, T/C [13]?
A: 105%

Q: What about the viability, T/C [14] of the same compound?
A: 94.2%

Q: And the viability, T/C [15]?
A: 91.6%

Q: What about the viability, T/C [16] of the same compound?
A: 85.4%

Q: What about the viability, T/C (second compound 1 µM, first compound 0.316 µM) of the same compound?
A: 70.3%

Q: What about the viability, T/C (second compound 1 µM, first compound 1 µM) of the same compound?
A: 50.7%

Q: And the viability, T/C [17]?
A: 95.3%

Q: What about the viability, T/C [18] of the same compound?
A: 90.1%

Q: What about the viability, T/C [19] of the same compound?
A: 80%

Q: What about the viability, T/C [20] of the same compound?
A: 69%

Q: What about the viability, T/C (second compound 3.16 µM, first compound 0.316 µM) of the same compound?
A: 59.4%

Q: And the viability, T/C (second compound 3.16 µM, first compound 1 µM)?
A: 50.2%

Q: What about the viability, T/C [21] of the same compound?
A: 95.8%

Q: What about the viability, T/C [22] of the same compound?
A: 86.2%

Q: And the viability, T/C [23]?
A: 69.7%

Q: And the viability, T/C [24]?
A: 59%

Q: And the viability, T/C (second compound 10 µM, first compound 0.316 µM)?
A: 46.6%

Q: And the viability, T/C (second compound 10 µM, first compound 1 µM)?
A: 44.3%

Q: How did the pIC50 (second compound 0.0316 µM) turn out when Cn1ncnc1[C@H]1c2n[nH]c(=O)c3cc(F)cc(c23)N[C@@H]1c1ccc(F)cc1 + Nc1ccc(C#CCN(C(=O)Cc2ncc(C(F)(F)F)cc2C(F)(F)F)c2ccc(F)cc2)nn1 was run?
A: < 7.00

Q: What about the pIC50 (second compound 0.1 µM) of the same compound?
A: < 7.00

Q: And the pIC50 (second compound 0.316 µM)?
A: < 7.00

Q: And the pIC50 (second compound 1 µM)?
A: < 7.00

Q: What about the pIC50 (second compound 3.16 µM) of the same compound?
A: < 7.00

Q: And the pIC50 (second compound 10 µM)?
A: < 7.00

Q: And the viability, T/C (second compound 0.0316 µM, first compound 0.000316 µM)?
A: 109%

Q: What about the viability, T/C (second compound 0.0316 µM, first compound 0.001 µM) of the same compound?
A: 103%

Q: And the viability, T/C [1]?
A: 109%

Q: And the viability, T/C [2]?
A: 103%

Q: What about the viability, T/C [3] of the same compound?
A: 111%

Q: And the viability, T/C [4]?
A: 95.1%

Q: And the viability, T/C (second compound 0.1 µM, first compound 0.000316 µM)?
A: 100%

Q: What about the viability, T/C (second compound 0.1 µM, first compound 0.001 µM) of the same compound?
A: 122%

Q: And the viability, T/C [5]?
A: 109%

Q: And the viability, T/C [6]?
A: 104%

Q: What about the viability, T/C [7] of the same compound?
A: 108%

Q: What about the viability, T/C [8] of the same compound?
A: 88.4%

Q: And the viability, T/C (second compound 0.316 µM, first compound 0.000316 µM)?
A: 110%

Q: And the viability, T/C (second compound 0.316 µM, first compound 0.001 µM)?
A: 109%

Q: What about the viability, T/C [9] of the same compound?
A: 88.5%

Q: What about the viability, T/C [10] of the same compound?
A: 102%

Q: And the viability, T/C [11]?
A: 110%

Q: And the viability, T/C [12]?
A: 105%

Q: And the viability, T/C (second compound 1 µM, first compound 0.000316 µM)?
A: 107%

Q: And the viability, T/C (second compound 1 µM, first compound 0.001 µM)?
A: 102%

Q: And the viability, T/C [13]?
A: 104%

Q: What about the viability, T/C [14] of the same compound?
A: 99.7%

Q: And the viability, T/C [15]?
A: 119%

Q: And the viability, T/C [16]?
A: 92.8%

Q: What about the viability, T/C (second compound 3.16 µM, first compound 0.000316 µM) of the same compound?
A: 105%

Q: And the viability, T/C (second compound 3.16 µM, first compound 0.001 µM)?
A: 100%

Q: And the viability, T/C [17]?
A: 104%

Q: And the viability, T/C [18]?
A: 103%

Q: What about the viability, T/C [19] of the same compound?
A: 108%

Q: And the viability, T/C [20]?
A: 89%

Q: And the viability, T/C (second compound 10 µM, first compound 0.000316 µM)?
A: 102%

Q: And the viability, T/C (second compound 10 µM, first compound 0.001 µM)?
A: 90.9%

Q: And the viability, T/C [21]?
A: 99%

Q: What about the viability, T/C [22] of the same compound?
A: 88.1%

Q: What about the viability, T/C [23] of the same compound?
A: 102%

Q: What about the viability, T/C [24] of the same compound?
A: 86.1%
